Data on ten compounds can be found in ChEMBL document CHEMBL1129127, “Potent and selective PKC inhibitory 5-membered ring analogs of balanol with replacement of the carboxamide moiety” (Bioorg Med Chem Lett, 1996).

In assay [1] the target is T1, Protein kinase C epsilon type (Homo sapiens, UniProt Q02156).
T1 sequence (Q02156 whole entry): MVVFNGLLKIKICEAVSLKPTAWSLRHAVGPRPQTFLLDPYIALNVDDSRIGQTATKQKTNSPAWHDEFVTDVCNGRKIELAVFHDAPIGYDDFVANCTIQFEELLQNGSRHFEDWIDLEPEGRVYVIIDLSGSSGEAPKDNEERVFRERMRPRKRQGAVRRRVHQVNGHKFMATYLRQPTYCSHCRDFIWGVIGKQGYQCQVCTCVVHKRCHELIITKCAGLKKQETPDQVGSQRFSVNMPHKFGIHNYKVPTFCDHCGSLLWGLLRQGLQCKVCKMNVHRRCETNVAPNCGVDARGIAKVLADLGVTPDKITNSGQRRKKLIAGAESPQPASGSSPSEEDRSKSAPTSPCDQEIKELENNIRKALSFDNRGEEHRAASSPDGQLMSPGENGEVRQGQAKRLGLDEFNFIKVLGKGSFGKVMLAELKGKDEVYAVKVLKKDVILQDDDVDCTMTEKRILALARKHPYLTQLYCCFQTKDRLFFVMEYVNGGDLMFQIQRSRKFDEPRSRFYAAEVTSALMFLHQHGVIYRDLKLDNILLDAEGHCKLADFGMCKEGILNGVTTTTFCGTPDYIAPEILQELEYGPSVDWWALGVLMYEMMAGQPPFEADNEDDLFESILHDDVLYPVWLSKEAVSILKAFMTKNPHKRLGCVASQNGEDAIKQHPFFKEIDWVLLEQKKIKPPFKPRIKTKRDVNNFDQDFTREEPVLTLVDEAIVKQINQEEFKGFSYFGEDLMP
The assay is described as follows: Inhibition of protein kinase C epsilon.

Assay [2] has as its target Protein kinase C delta type (Homo sapiens, UniProt Q05655). The assay is described as follows: Inhibition of protein kinase C delta.
For assay [3], the target named is Protein kinase C eta type (Homo sapiens, UniProt P24723). The assay is described as follows: Inhibition of protein kinase C eta.
Protein kinase C eta type, sequence (P24723 whole entry): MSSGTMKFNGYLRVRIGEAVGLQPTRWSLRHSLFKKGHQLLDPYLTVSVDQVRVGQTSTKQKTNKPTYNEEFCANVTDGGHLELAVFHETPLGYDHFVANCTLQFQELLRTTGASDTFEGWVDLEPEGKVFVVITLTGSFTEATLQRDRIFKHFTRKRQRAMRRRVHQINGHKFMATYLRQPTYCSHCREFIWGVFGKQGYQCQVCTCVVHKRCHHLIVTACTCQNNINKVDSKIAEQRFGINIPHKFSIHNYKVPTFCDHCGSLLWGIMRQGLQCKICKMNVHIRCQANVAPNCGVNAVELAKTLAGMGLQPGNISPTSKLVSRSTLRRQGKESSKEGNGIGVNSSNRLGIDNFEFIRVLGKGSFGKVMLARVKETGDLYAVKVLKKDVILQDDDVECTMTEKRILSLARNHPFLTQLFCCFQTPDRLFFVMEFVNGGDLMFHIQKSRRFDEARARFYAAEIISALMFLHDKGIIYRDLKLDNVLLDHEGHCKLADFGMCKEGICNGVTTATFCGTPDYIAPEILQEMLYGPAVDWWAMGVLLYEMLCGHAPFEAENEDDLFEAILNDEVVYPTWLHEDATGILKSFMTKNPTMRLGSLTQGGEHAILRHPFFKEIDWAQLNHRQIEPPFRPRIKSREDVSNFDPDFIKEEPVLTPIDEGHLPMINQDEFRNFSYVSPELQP
A further assay is filed under the species Homo sapiens. The assay is described as follows: Inhibition of cellular activity by neutrophil assay. In kind it is functional.
A short description of assay [4]: Inhibition of protein kinase A.
For assay [5], the target named is Protein kinase C gamma type (Homo sapiens, UniProt P05129). The assay is described as follows: Inhibition of protein kinase C gamma.
Assay [6] deals with Protein kinase C alpha type (Homo sapiens, UniProt P17252). The assay is described as follows: Inhibition of protein kinase C alpha.
Assay [7] has as its target T2, Protein kinase C beta type (Homo sapiens, UniProt P05771). The assay is described as follows: Inhibition of protein kinase C beta I.
The target in assay [8] is T2, Protein kinase C beta type. The assay is described as follows: Inhibition of protein kinase C beta II.

Protein kinase C delta type, sequence (Q05655 whole entry): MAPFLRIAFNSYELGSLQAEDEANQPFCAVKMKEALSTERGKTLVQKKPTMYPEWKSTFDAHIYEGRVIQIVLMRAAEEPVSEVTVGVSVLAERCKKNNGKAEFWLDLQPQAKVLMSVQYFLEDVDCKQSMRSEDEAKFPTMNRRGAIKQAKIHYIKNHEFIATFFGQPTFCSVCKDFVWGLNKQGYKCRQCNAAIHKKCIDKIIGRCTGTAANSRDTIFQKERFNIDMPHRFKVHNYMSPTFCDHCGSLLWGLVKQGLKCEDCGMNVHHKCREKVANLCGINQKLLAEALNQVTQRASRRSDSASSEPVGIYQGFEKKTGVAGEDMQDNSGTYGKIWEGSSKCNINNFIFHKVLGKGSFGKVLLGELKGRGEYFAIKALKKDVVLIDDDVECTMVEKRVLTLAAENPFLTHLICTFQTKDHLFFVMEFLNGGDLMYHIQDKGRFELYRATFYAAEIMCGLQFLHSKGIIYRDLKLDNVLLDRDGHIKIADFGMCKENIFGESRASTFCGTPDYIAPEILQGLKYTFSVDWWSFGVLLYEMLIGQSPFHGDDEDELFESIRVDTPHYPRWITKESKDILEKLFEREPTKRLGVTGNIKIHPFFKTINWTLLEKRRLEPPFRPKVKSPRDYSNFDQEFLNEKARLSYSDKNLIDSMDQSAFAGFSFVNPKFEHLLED
T2 sequence (P05771 whole entry): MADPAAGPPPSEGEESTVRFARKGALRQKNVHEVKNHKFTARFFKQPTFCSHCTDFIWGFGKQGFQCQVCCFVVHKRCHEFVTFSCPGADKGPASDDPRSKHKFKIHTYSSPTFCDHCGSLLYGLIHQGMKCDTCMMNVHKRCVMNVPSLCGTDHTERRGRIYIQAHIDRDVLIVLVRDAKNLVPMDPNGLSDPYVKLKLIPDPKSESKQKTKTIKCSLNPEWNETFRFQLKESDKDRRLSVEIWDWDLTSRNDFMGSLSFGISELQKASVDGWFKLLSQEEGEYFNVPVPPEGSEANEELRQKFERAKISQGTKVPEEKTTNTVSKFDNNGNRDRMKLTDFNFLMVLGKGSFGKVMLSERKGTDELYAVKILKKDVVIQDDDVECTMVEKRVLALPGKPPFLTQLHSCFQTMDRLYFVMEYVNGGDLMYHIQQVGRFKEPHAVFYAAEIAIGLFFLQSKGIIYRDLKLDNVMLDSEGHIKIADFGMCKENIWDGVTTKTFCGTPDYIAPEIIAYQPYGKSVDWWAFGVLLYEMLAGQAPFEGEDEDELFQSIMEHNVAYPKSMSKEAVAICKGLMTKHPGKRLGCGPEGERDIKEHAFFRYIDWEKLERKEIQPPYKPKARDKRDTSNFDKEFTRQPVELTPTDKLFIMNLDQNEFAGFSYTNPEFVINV

As usually defined, the IC50 is the point on the concentration scale where inhibition reaches its midpoint. Consider `O=C(OC1CNCC1Cc1ccc(O)cc1)c1cc(O)c(C(=O)c2c(O)cccc2C(=O)O)c(O)c1` (stereo not drawn), for which the IC50 is 1800 nM in assay [1]; 5 nM in assay [2]; 20 nM in [3]; above 10000 nM in the assay listed under Homo sapiens (Homo sapiens); 320 nM in [4]; 40 nM in assay [5].
In assay [4], `O=C(OC1CCCC1Oc1ccc(O)cc1)c1cc(O)c(C(=O)c2c(O)cccc2C(=O)O)c(O)c1` (stereo not drawn) came in with an IC50 of 50000 nM.
Take `O=C(NC1CCCC1OC(=O)c1cc(O)c(C(=O)c2c(O)cccc2C(=O)O)c(O)c1)c1ccc(O)cc1` (stereo not drawn): the IC50 in assay [2] is 1 nM; in [3] it was 1 nM; in the assay listed under Homo sapiens (Homo sapiens), above 10000 nM.
`COC(=O)c1cccc(O)c1C(=O)c1c(O)cc(C(=O)OC2CNCC2Cc2ccc(O)cc2)cc1O` (stereo not drawn): the midpoint of inhibition in assay [3], the IC50, lay at 50 nM.
In the case of `O=C(NC1CNCCCC1OC(=O)c1cc(O)c(C(=O)c2c(O)cccc2C(=O)O)c(O)c1)c1ccc(O)cc1` (single isomer, unassigned; (-)), the IC50 worked out at 30 nM in assay [6]; 10 nM in [7]; 10 nM in assay [8]; 16 nM in assay [2]; 3 nM in assay [3]; 40 nM in assay [4]. Besides, 10 nM corresponded to half-maximal inhibition in assay [5] (IC50).
For the compound `O=C(NC1CNCCCC1OC(=O)c1cc(O)c(C(=O)c2c(O)cccc2C(=O)O)c(O)c1)c1ccc(O)cc1` (racemic), the IC50 in the assay filed under Homo sapiens (Homo sapiens) was above 10000 nM; in assay [4] it was 60 nM.
Take `O=C(OC1CCCC1Cc1ccc(O)cc1)c1cc(O)c(C(=O)c2c(O)cccc2C(=O)O)c(O)c1` (stereo in doubt; anti): the results for the IC50 (in the assay filed under Homo sapiens; in [4]) were 3100 nM and above 50000 nM, respectively.
Take `O=C(OC1CCCC1Cc1ccc(O)cc1)c1cc(O)c(C(=O)c2c(O)cccc2C(=O)O)c(O)c1` (stereo in doubt; syn): the IC50 in the assay filed under Homo sapiens was 10000 nM.
`COC(=O)c1cccc(O)c1C(=O)c1c(O)cc(C(=O)OC2CCCC2Cc2ccc(O)cc2)cc1O` (stereo not drawn) gave an IC50 in assay [4] above 50000 nM.
Consider `O=C(NC1CNCC1OC(=O)c1cc(O)c(C(=O)c2c(O)cccc2C(=O)O)c(O)c1)c1ccc(O)cc1` (stereo not drawn), for which the IC50 in assay [6] was 22 nM; in assay [1], 10 nM; in assay [7], 10 nM; in assay [8] it was 33 nM; in assay [2], 5 nM; in [3], 4 nM. Also, the results for the IC50 (in the assay listed under Homo sapiens (Homo sapiens); in [4]; in assay [5]) were above 10000 nM, 70 nM and 12 nM, respectively.
